# Where two headings read alike, the source gives them in different places. Numbered stars: 1 amine (or outer) side, 2 acyl side, 3 side chain; on linkers, the order of the positions; unused ones are H or OH. Square brackets hold non-standard residues; d marks the D form. Peptide text beside a SMILES is read from it. * marks the point of attachment. Hyp(2-Ph-quinolin-4-yl) = O=C(O)[C@@H]1C[C@@H](Oc2cc(-c3ccccc3)nc3ccccc23)CN1; X1 = C=CC1C[C@]1(N[*:1])C(=O)[*:2]; Hyp = O=C(O)[C@@H]1C[C@@H](O)CN1; Chg = N[C@H](C(=O)O)C1CCCCC1; Tle = CC(C)(C)[C@H](N)C(=O)O; Nva = CCC[C@H](N)C(=O)O; Bn = c1ccc(C*)cc1
# What was measured:
# [1] = target: T1, NS3-NS4A protein WT (Hepatitis C virus genotype 1b, UniProt Q9WMX2); assay: In vitro enzyme assay, Ki, full length NS3/NS4A protein WT; format: biochemical, HCV genotype 1b
# T1 construct: TEV protease cleavage site (N); made in house; host or cells: E. coli (pET11a)
# Text: (§1) DNA encoding the NS3-NS4A coding region of HCV genotype 1b, that includes a 28-residue N-terminal sequence containing a hexahistidine tag and a TEV protease cleavage (Pause, A. et al. (2003) J. Biol. Chem. 278: 20374–20380) was amplified by PCR and then subcloned into the pET11a bacterial expression vector. Amino acid substitutions A156T and D168V were introduced into the NS3-NS4A coding region using standard site-directed mutagenesis procedures.
# (§2) The NS3 protease domain (harboring A156T or D168V or R155Q mutations) were expressed in E. coli and purified as previously described (LaPlante, S. R. et al (1999) J. Biol. Chem. 274: 18618–18624). The NS3-NS4A proteins with either A156T or D168V mutation were also expressed in E. coli and the cell paste was resuspended in 5 mL of lysis buffer (50 mM sodium phosphate, pH 7.5, 20% glycerol, 1 mM EDTA, 0.5% Triton X-100, 0.5 M NaCl) per gram of cells, treated with DNase I, then clarified by a 30-min centrifugation at 150,000×g; the supernatant was diluted 2-fold in 50 mM sodium phosphate, pH 7.5, 0.5 M NaCl and imidazole was added to a final concentration of 25 mM. The NS3-NS4A complex solution was purified by successive steps on a Hi-Trap Ni^+2-chelating column, and poly(U)-Sepharose affinity column previously equilibrated in 50 mM sodium phosphate, pH 7.0, 10% glycerol, 0.2 M NaCl, 0.05% n-dodecyl-β-D-maltoside, 10 mM β-mercaptoethanol. The enzyme was eluted in the same buffer containing 2 M NaCl. The isolated enzymes were stored at −80° C.
# (§3) Ki determination—The inhibition constant (Ki) was determined using the depsipeptide fluorogenic substrate anthranilyl-DDIVPAbu[C(O)—O]AMY(3-NO2)TW-OH. The cleavage reaction was continuously monitored at 23° C. on a BMG POLARstar® Galaxy fluorometer, equipped with excitation and emission filters of 320 and 405 nm respectively. […] IC50's were obtained from a non-linear curve fit using the Hill model applied to the % inhibition-concentration data and calculated through the use of SAS (Statistical Software System, SAS Institute Inc., Cary, N.C.).
# [2] = target: T2, NS3-NS4A protein D168V (Hepatitis C virus genotype 1b, UniProt Q9WMX2, D1194V); assay: In vitro enzyme assay, Ki, full length NS3/NS4A protein D168V; format: biochemical, HCV genotype 1b
# T2 construct: TEV protease cleavage site (N); made in house; host or cells: E. coli (pET11a)
# Text: as §1, §2, §3
# [3] = target: T3, NS3-NS4A protein A156T (Hepatitis C virus genotype 1b, UniProt Q9WMX2, A1182T); assay: In vitro enzyme assay, Ki, full length NS3/NS4A protein A156T; format: biochemical, HCV genotype 1b
# T3 construct: TEV protease cleavage site (N); made in house; host or cells: E. coli (pET11a)
# Text: as §1
# (§4) The NS3 protease domain (harboring A156T or D168V or R155Q mutations) were expressed in E. coli and purified as previously described (LaPlante, S. R. et al (1999) J. Biol. Chem. 274: 18618–18624). […]
# as §3
# [4] = system: bicistronic subgenomic HCV RNA replicon (S22.3 cell line); assay: HCV RNA replicon cell culture EC50 of the inhibitors used for selection; format: cell-based; conditions: EC50 stated for the inhibitor used in resistance selection, replicon cells
# Text: The method described by Lohmann et al. (1999, Science 285:110) was used to mimic the replication of subgenomic HCV RNA in a system that is dependent on the function of HCV non-structural proteins and enzymes. This HCV RNA replicon system incorporates two cistrons: one encoding the HCV non-structural region and the second encoding a selectable neomycin resistant marker (i.e. gene encoding neomycin phosphotransferase). As one of skill in the art will appreciate, the second cistron may encode any marker suitable for selection purposes. Cell lines harboring such bicistronic, subgenomic HCV RNA, such as the S22.3 cell line, are described by Kukolj and Pause (see WO 02/052015, the contents of which are hereby incorporated by reference). These cell lines are useful in evaluating the efficacy and potency of potential anti-HCV therapeutics that inhibit one or more of the HCV non-structural proteins.
# As shown, Huh-7 cells (8×10^6 cells) were transfected with the bicistronic subgenomic HCV RNA using transfection methods well-established in the art. Transfected Huh-7 cells were selected by growth in neomycin-containing media (0.5 mg/ml neomycin). Specifically, transfected cells replicate the RNA that produces neomycin phosphotransferase thereby rendering the cells resistant to the cytotoxic effect of neomycin. Mutated HCV replicons as described in WO 02/052015 can also be used in accordance with the present method to increase RNA replication and efficiency of replicon establishment.
# inhibitor A=cyclopropa[e]pyrrolo [1,2-a][1,4]diazacyclopentadecine-14a(5H)-carboxylic acid, 6-[[(cyclopentyloxy) carbonyl]amino]-1,2,3,6,7,8,9,10,11,13a, 14,15,16,16a-tetradecahydro-2-[[7-methoxy-2-[2-[(1-methylethyl)amino]-4-thiazolyl]-4-quinolinyl]oxy]-5,16-dioxo-, (2R,6S, 12Z, 13aS, 14aR, 16aS), which is described as compound #822 in WO 00/59929, the contents of which is hereby incorporated by reference. The colonies were grown in the presence of increasing concentrations of this inhibitor (EC50 of 2 nM) ranging from 2 nM to 2000 nM.
# [5] = system: WT HCV subgenomic replicon in Huh-7 cells; assay: Inhibitor EC50 in WT replicon cell line; format: cell-based; conditions: Hepatitis C virus
# [6] = system: NS3 A156T mutant HCV subgenomic replicon in Huh-7 cells; assay: Inhibitor EC50 in NS3 A156T mutant replicon cell line; format: cell-based; conditions: Hepatitis C virus, Huh-7, read-out: EC50, A156T
# Text: (§5) Specific isogenic HCV subgenomic replicon cDNAs individually containing only one of the inhibitor-resistant mutations, i.e. (in this example: A156T; or A156V; or D168V; or D168G) were cloned and corresponding in vitro transcribed RNA of these modified bi-cistronic replicons were generated. The mutant-encoding RNAs were used to construct mutant-containing replicon cell lines in naïve Huh-7 cells as described previously for other HCV replicons. […] They were also used to determine the level of inhibition of the mutant inhibitor-resistant cell lines in the presence of an unrelated HCV NS5B polymerase inhibitor or alpha-interferon. Using the assay described in WO 03/010141 (Example 48) the EC50 of each inhibitor was determined using the mutant cell lines.
# [7] = system: NS3 A156V mutant HCV subgenomic replicon in Huh-7 cells; assay: Inhibitor EC50 in NS3 A156V mutant replicon cell line; format: cell-based; conditions: Hepatitis C virus, Huh-7, read-out: EC50, A156V
# Text: as §5
# [8] = system: NS3 D168V mutant HCV subgenomic replicon in Huh-7 cells; assay: Inhibitor EC50 in NS3 D168V mutant replicon cell line; format: cell-based; conditions: Hepatitis C virus, Huh-7, read-out: EC50, D168V
# Text: as §5
# [9] = system: NS3 D168G mutant HCV subgenomic replicon in Huh-7 cells; assay: Inhibitor EC50 in NS3 D168G mutant replicon cell line; format: cell-based; conditions: Hepatitis C virus, Huh-7, read-out: EC50, D168G
# Text: as §5
# [10] = target: T4, NS3 protease (1-180) WT-NS4A peptide complex (Hepatitis C virus genotype 1b, UniProt Q9WMX2); assay: In vitro enzyme assay, Ki, NS3 protease-NS4A peptide complex WT; format: biochemical, HCV
# T4 construct: the NS3 protease (1–180) coding region for wild-type; made in house; host or cells: bacterial expression vector (E. coli)
# Text: (§6) Alternatively, the NS3 protease (1–180) coding region for wild-type with the sequence ASKKKK at the C-terminus was cloned into a bacterial expression vector and amino acid substitutions A156T, D168V and R155Q were introduced as described above.
# as §4, §3
# [11] = target: T5, NS3 protease (1-180) A156T-NS4A peptide complex (Hepatitis C virus genotype 1b, UniProt Q9WMX2, A1182T); assay: In vitro enzyme assay, Ki, NS3 protease-NS4A peptide complex A156T; format: biochemical, HCV; conditions: calculated Ki from IC50
# T5 construct: the NS3 protease (1–180) coding region for wild-type; made in house; host or cells: E. coli
# Text: as §6, §4, §3
# [12] = target: T6, NS3 protease (1-180) D168V-NS4A peptide complex (Hepatitis C virus genotype 1b, UniProt Q9WMX2, D1194V); assay: In vitro enzyme assay, Ki, NS3 protease-NS4A peptide complex D168V; format: biochemical, HCV; conditions: calculated Ki from IC50
# T6 construct: the NS3 protease (1–180) coding region for wild-type; made in house; host or cells: E. coli
# Text: as §6, §4, §3
# [13] = target: T7, NS3 protease (1-180) R155Q-NS4A peptide complex (Hepatitis C virus genotype 1b, UniProt Q9WMX2, R1181Q); assay: In vitro enzyme assay, Ki, NS3 protease-NS4A peptide complex R155Q; format: biochemical, HCV; conditions: calculated Ki from IC50
# T7 construct: the NS3 protease (1–180) coding region for wild-type; made in house; host or cells: E. coli
# Text: as §6, §4, §3
smiles,measurement,setting,value
CCC[C@H](NC(=O)[C@@H]1C[C@@H](OCc2ccccc2)CN1C(=O)[C@@H](NC(=O)[C@@H](NC(=O)[C@@H](CCC(=O)O)NC(=O)[C@H](CC(=O)O)NC(C)=O)[C@@H](C)CC)C(C)C)C(=O)O [Compound E] (Ac-D[dE]IV[Hyp](Bn)[Nva]-OH),Ki,[1],1600 nM
same,Ki,"[2]; read-out: Ki, D168V",8100 nM
C=CC1C[C@]1(NC(=O)[C@@H]1C[C@@H](Oc2cc(-c3ccccc3)nc3ccccc23)CN1C(=O)[C@@H](NC(=O)[C@@H](NC(=O)[C@@H](CCC(=O)O)NC(=O)[C@H](CC(=O)O)NC(C)=O)C1CCCCC1)C(C)(C)C)C(=O)O (some centres unmarked) [Compound F] (Ac-D[dE][Chg][Tle][Hyp(2-Ph-quinolin-4-yl)][X1]-OH),Ki,[1],0.047 nM
same,Ki,"[3]; read-out: Ki, A156T",29 nM
same,Ki,"[2]; read-out: Ki, D168V",12 nM
"COc1ccc2c(O[C@@H]3C[C@H]4C(=O)N[C@]5(C(=O)O)C[C@H]5/C=C\CCCCC[C@H](NC(=O)OC5CCCC5)C(=O)N4C3)cc(-c3csc(NC(C)C)n3)nc2c1 [inhibitor A, cyclopropa[e]pyrrolo [1,2-a][1,4]diazacyclopentadecine-14a(5H)-carboxylic acid, 6-[[(cyclopentyloxy)carbonyl]amino]-1,2,3,6,7,8,9,10,11,13a, 14,15,16,16a-tetradecahydro-2-[[7-methoxy-2-[2-[(1-methylethyl)amino]-4-thiazolyl]-4-quinolinyl]oxy]-5,16-dioxo-, (2R,6S, 12Z, 13aS, 14aR, 16aS)]",EC50,[4]; Hepatitis C virus,2 nM
same,EC50,[5],0.9 nM
same,EC50,[6],547 nM
same,EC50,[7],324 nM
same,EC50,[8],735 nM
same,EC50,[9],23 nM
same,Ki,[1],1.6 nM
same,Ki,"[3]; calculated Ki from IC50, read-out: Ki, A156T (calculated Ki from IC50)",870 nM
same,Ki,"[2]; calculated Ki from IC50, read-out: Ki, D168V (calculated Ki from IC50)",520 nM
same,Ki,[10],5.6 nM
same,Ki,[11],800 nM
same,Ki,[12],970 nM
same,Ki,[13],220 nM
"C=C[C@@H]1C[C@]1(NC(=O)[C@@H]1C[C@@H](Oc2cc(-c3csc(NC(C)=O)n3)nc3cc(OC)ccc23)CN1C(=O)[C@@H](NC(=O)OC1CCCC1)C(C)(C)C)C(=O)O [inhibitor B, cyclopropane carboxylic acid, N-[(cyclopentyloxy)carbonyl]-3-methyl-L-valyl-(4R)-4-[[2-[2-(acetylamino)-4-thiazolyl]-7-methoxy-4-quinolinyl]oxy]-L-prolyl-1-amino-2-ethenyl-, (1R,2S)-]",EC50,[4],40 nM
"COc1ccc2c(O[C@@H]3C[C@H]4C(=O)N[C@]5(C(=O)O)C[C@H]5/C=C\CCCCC[C@H](NC(=O)OC(C)(C)C)C(=O)N4C3)cc(-c3csc(NC(C)=O)n3)nc2c1 [inhibitor C, Cyclopropa[e]pyrrolo[1,2-a][1,4]-diazacyclopentadecine-14a(5H)-carboxylic acid, 2-[[2-[2-(acetylamino)-4-thiazolyl]-7-methoxy-4-quinolinyl]oxy]-6-[[(1,1-dimethylethoxy)carbonyl]amino]-1,2,3,6,7,8,9,10,11,13a,14,15,16,16a-tetradecahydro-5,16-dioxo-, (2R,6S, 12Z, 13aS, 14aR, 16aS)-]",EC50,[4],5 nM

# Reference: patent publication US7208309B2, “Inhibitor-resistant HCV NS3 protease” (priority 2002, dated 2007)
